These results are taken from US20200323950A1, “ANTIBACTERIAL PEPTIDES AND COMBINATIONS FOR CO-THERAPY” (priority 2017, published 2020).

Values after ≈ are worked out from the molar mass of the structure shown. *1 amine or outer side, *2 acyl side, *3 side chain or, on linkers, in order; H or OH if unused. Bridges are numbered along the chain shown (N, C = ends). Roman numbers before positions name the chains, in order. [ ]: non-standard residue; d: D form. The star is where a group is joined. Maleimide(3,4-diyl) = O=C1NC(=O)C([*:2])=C1[*:1]; Ac6c = NC1(C(=O)O)CCCCC1; Dab = NCC[C@H](N)C(=O)O; NHNH2 = NN* A value given as a limit tells only on which side of the number the result lay.

One experiment deals with E. coli. Briefly: Synergy results for co-administration of A3-APO (ARV-1501). Type of experiment: cell-based. The following applies: antibiotic co-administered with A3-APO (ARV-1501).
In a further experiment the test system is H. influenzae. The description is as above. Type of experiment: cell-based. The note with it: antibiotic co-administered with A3-APO (ARV-1501).
For the next experiment, the system named is K. pneumoniae. The experiment is described as above. Type of experiment: cell-based. The following applies: antibiotic co-administered with A3-APO (ARV-1501). On the procedure:
Restoring antibiotic sensitivity to resistant bacteria. A colistin-resistant, carbapenem-resistant strain of K. pneumonia (K97/09) from a clinical isolate was used to test the effect of A3-APO treatment on antibiotic resistance. An in vitro assay measuring visible bacterial growth in the presence of A3-APO and imipenem or colistin was performed.
Synergy Results for Co-administration of A3-APO (ARV-1501)

The test system of experiment [1] is multidrug-resistant Klebsiella pneumoniae K97/09. Briefly: microbe, parasite or virus in culture.
Experiment [2] deals with multidrug-resistant Acinetobacter baumannii BAA-1605. Description: microbe, parasite or virus in culture. The following applies: BAA1605.
A further experiment deals with K. pneumoniae K97/09. Description: Bacteremia Synergy Assay 1 (mouse systemic infection). The note with it: 30 mg/kg sc 3 times (Group 2). Type of experiment: in vivo. As for the experimental part: In vivo Studies. Animals. Assays 1-2. NMRI (Naval Medical Research Institute) BR or CD-1 mice (Toxi-Coop Zrt, Budapest, Hungary) were housed in plastic type 2 cages, 3-5 mice per cage, on softwood granules as bedding. The room was kept between 21° C. and 25° C. with 12 h light:12 h dark cycles. The animals had free access to tap water and pelleted rodent food. Upon completion of the experiments, surviving mice were euthanized by diethyl ether inhalation. Animals were maintained and handled in accordance with the recommendations of the Guidelines for the Care and Use of Laboratory Animals, and the protocols were approved by the Animal Care Committee of Semmelweis University. The planned 15 treatment groups of mice were divided roughly equally into two assays with 8 and 7 treatment groups and untreated controls in each assay for safe and humane handling of large numbers of mice.
Infection models. NMRI mice weighing approximately 20 g (4 weeks old) were infected by intraperitoneal (ip) injection of 4×10^8 CFU/g K. pneumoniae K97/09. Mice were randomly allocated to 8 and […] groups (5 mice per group).
Bacteremia Synergy Assay 1.
Group 1: phosphate buffered saline (PBS) subcutaneously (sc) 1 h after infection. Group 2: imipenem 30 mg/kg sc at 2, 14 and 26 h after infection. […]
Survival was recorded hourly 24-36 h after infection. […]

The next experiment relates to S. typhimurium. Description: Synergy results for co-administration of A3-APO (ARV-1501). Type of experiment: cell-based. The note with it: antibiotic co-administered with A3-APO (ARV-1501).
Experiment [3] deals with Acinetobacter baumannii BAA-1605. Type of experiment: cell-based. The following applies: A. baumannii BAA-1605.
Procedure: In vitro activity and synergy. Minimal inhibitory concentration (MIC) assays were performed using sterile 96-well polypropylene plates in a final volume of 100 mL. Briefly, 50 μL of midlogarithmic phase bacterial cultures were diluted to 5×10^5 CFU/mL in Mueller-Hinton broth (MHB) and then added to 50 μL of the serially diluted antibiotic. […] MICs were identified as the lowest antimicrobial concentrations at which turbidity was not observed. Antimicrobial synergy was determined by evaluating the fractional inhibitory concentration (FIC) index and was characterized by a conventional checkerboard assay (Fernandez-Cuenca et al., 2003).
In experiment [4] the test system is Klebsiella pneumoniae K97/09. Description: Checkerboard synergy assay (FIC index). Type of experiment: cell-based. The following applies: K. pneumoniae K97/09. As for the experimental part: In vitro activity and synergy. Minimal inhibitory concentration (MIC) assays were performed using sterile 96-well polypropylene plates in a final volume of […]. Briefly, 50 μL of midlogarithmic phase bacterial cultures were diluted to 5×10^5 CFU/mL in Mueller-Hinton broth (MHB) and then added to 50 μL of the serially diluted antibiotic. The highest A3-APO and other test compound concentration evaluated was 256 mg/L. Cultures were incubated at 37° C. for 16-20 h without shaking. MICs were identified as the lowest antimicrobial concentrations at which turbidity was not observed. Antimicrobial synergy was determined by evaluating the fractional inhibitory concentration (FIC) index and was characterized by a conventional checkerboard assay (Fernandez-Cuenca et al., 2003). Bacteria grown to mid-logarithmic phase in MHB were pre-incubated with serially diluted concentrations of peptides such as A3-APO, and the antimicrobial controls, imipenem, colistin or meropenem.
The sum of the FICs (Σ FIC) was calculated with the equation Σ FIC=FICA+FICB=(CA/MICA)+(CB/MICB), where MICA and MICB are the MICs of antimicrobial A and B alone, respectively, and CA and CB are the concentrations of the drugs when combined, respectively. Synergy was defined as a Σ FICs≤0.5 and additive activity was defined as a Σ FICs>0.5≤1.0.

A further experiment deals with bacterial DnaK (Escherichia coli, UniProt P0A6Y8). The note with it: Cassone et al., 2008; cited from earlier work.
Sequence of bacterial DnaK (P0A6Y8 whole entry): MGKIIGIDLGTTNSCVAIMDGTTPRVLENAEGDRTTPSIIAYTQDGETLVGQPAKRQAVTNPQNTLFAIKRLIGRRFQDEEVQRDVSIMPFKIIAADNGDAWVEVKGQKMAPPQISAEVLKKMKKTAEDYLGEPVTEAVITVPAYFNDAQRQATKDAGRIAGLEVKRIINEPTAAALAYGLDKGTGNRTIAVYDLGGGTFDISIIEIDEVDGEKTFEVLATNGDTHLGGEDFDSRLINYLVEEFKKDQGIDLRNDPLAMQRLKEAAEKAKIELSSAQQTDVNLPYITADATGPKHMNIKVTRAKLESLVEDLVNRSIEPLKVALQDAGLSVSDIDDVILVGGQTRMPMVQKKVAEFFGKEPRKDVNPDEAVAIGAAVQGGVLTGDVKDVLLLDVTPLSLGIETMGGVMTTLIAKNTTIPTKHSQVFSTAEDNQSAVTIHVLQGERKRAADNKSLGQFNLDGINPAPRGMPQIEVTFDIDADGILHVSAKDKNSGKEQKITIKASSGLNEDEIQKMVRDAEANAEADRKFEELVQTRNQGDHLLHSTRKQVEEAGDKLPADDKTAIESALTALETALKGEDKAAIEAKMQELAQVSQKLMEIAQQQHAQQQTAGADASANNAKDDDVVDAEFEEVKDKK
Experiment [5] relates to panel of Gram-negative nosocomial bacteria (E. coli, K. pneumoniae, A. baumannii, P. aeruginosa). Description: Antibacterial assay (MIC), ranges over the panel. Type of experiment: cell-based. The following applies: against E. coli, A. baumannii and P. aeruginosa. As for the experimental part: (§1) Antibacterial assay. Antibacterial assays are undertaken to determine the minimal inhibitory concentrations (MIC) as described previouslyl^6.
(§2) Antibacterial activity. Each C-terminal modified PrAMP DTM-linked tetramer is assayed against nosocomial Gram-negative bacteria, including E. coli ATCC 29222, K. pneumoniae ATCC 13883, A. baumannii ATCC 19606 and P. aeruginosa ATCC 47085.

In another experiment the test system is K. pneumoniae ATCC 13883. Description: Antibacterial assay (MIC). Type of experiment: cell-based. The note with it: K. pneumoniae ATCC 13883, MHB, 37° C. On the procedure: as §1, §2
The subject of the next experiment is A. baumannii ATCC 19606. Description: Antibacterial assay (MIC). The following applies: A. baumannii ATCC 19606, MHB, 37° C. Type of experiment: cell-based. On the procedure: as §1, §2
Another experiment relates to E. coli ATCC 29222. Briefly: Antibacterial assay (MIC). Type of experiment: cell-based. The following applies: E. coli ATCC 29222, MHB, 37° C. As for the experimental part: as §1, §2
The test system of a further experiment is P. aeruginosa ATCC 47085. Briefly: Antibacterial assay (MIC). Type of experiment: cell-based. The following applies: P. aeruginosa ATCC 47085, MHB, 37° C. As for the experimental part: as §1, §2

Turning to `CC1(C)S[C@@H]2[C@H](NC(=O)[C@H](N)c3ccc(O)cc3)C(=O)N2[C@H]1C(=O)O` [amoxicillin], the Outcome entry with E. coli is “reversal of TEM-1 related”; in the experiment with H. influenzae, “MIC lowered with priming”.
Take `O=C(N[C@H](CO)[C@H](O)c1ccc([N+](=O)[O-])cc1)C(Cl)Cl` [chloramphenicol]: the Outcome entry in the experiment on K. pneumoniae, in the experiment with E. coli and in the experiment with H. influenzae was “MIC lowered with priming” throughout.
Turning to `C[C@@H](O)[C@H]1C(=O)N2C(C(=O)O)=C(SCCN=CN)C[C@H]12` [imipenem], the MIC in experiment [1] is greater than 256 µg/mL; in experiment [2], 64 µg/mL (≈ 214 µM). Moreover, the “survival improvement at 36 h over untreated controls” value with K. pneumoniae K97/09 worked out at 40%.
On to `Cc1cc(NS(=O)(=O)c2ccc(N)cc2)no1` [sulfamethoxazole], for which, in the experiment with S. typhimurium, the Outcome entry was “MIC lowered with priming”.
Take “I: H-[Ac6c]RPDKPRPYLGRPRPPRPVR[Dab]-NH2 / II: H-[Ac6c]RPDKPRPYLGRPRPPRPVR (amide I:21-II:C) [Gly11, (H-Chex-Arg-Pro-Asp-Lys-Pro-Arg-Pro-Tyr-Leu-Gly-Arg-Pro-Arg-Pro-Pro-Arg-Pro-Val-Arg)2-Dab-NH2]”: the “improvement in the MIC values when added together with imipenem or colistin” value in experiment [3] and in experiment [4] was “failed to exert any improvement” throughout. At bacterial DnaK, the DnaK binding entry is “fails to bind bacterial DnaK”.
In the case of “I: H-[Ac6c]RPDKPRPYLPRPRPPRPVR[Dab]C-NHNH2 / II: H-[Ac6c]RPDKPRPYLPRPRPPRPVR[Dab]C-NHNH2 / III: H-[Ac6c]RPDKPRPYLPRPRPPRPVR / IV: H-[Ac6c]RPDKPRPYLPRPRPPRPVR (amide I:21-III:C, II:21-IV:C; linker I:22-II:22 via Maleimide(3,4-diyl)) [tetramer-DTM-NHNH2]”, in experiment [5], the “MIC (range over the bacteria)” value lay in the range of 0.49 to 2.33 µM. In addition, the “Antibacterial activity, MIC” value with K. pneumoniae ATCC 13883 came out at 0.49 ± 0.01 µM; with A. baumannii ATCC 19606, 2.33 ± 0.48 µM; in the experiment with E. coli ATCC 29222, 0.93 ± 0.02 µM; in the experiment with P. aeruginosa ATCC 47085, 1.14 ± 0.03 µM.
